Assay in all cases: growth of human tumour cells (NCI), 48 h
For assay [1], the system named is 786-0 renal.
Assay [2] deals with OVCAR-3 ovarian.
The test system of assay [3] is IGROV1 ovarian.
Assay [4] has as its system SN12C renal.
Assay [5] deals with OVCAR-8 ovarian.
The subject of assay [6] is UO-31 renal.
Assay [7] relates to SF-268 CNS.
In assay [8] the test system is CCRF-CEM leukemia.
Assay [9] relates to NCI-H23 lung.

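Growth conditions: 96-well plates. Treatment: test compound, 48 hours, 5 concentrations. Analysis: linear interpolation between bracketing concentrations; unreached endpoints set to highest concentration. GI50: concentration for 50% inhibition of growth. TGI is the concentration that stops growth completely.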 Where only a bound is given, the exact number is not on record here.

Take `Nc1nc2c(nnn2C2CC(O)C(CO)O2)c(=O)[nH]1` (stereo not given): the GI50 in [1] was 2.99 µM; in assay [2] it was 4.78 µM; in assay [3], 9.49 µM; in assay [4], 5.44 µM; in assay [5], 3.71 µM; in [6], 3.96 µM. Moreover, the GI50 in [7] is 7.99 µM; in assay [8], 2.39 µM; in assay [9], 4.61 µM. Further, the TGI was over 100 µM in [1]; over 69 µM in assay [2]; over 100 µM in [3]; over 100 µM in assay [4]; over 100 µM in assay [5]; over 100 µM in [6]. The TGI in assay [7], in assay [8] and in assay [9] was over 100 µM throughout.

Regarding `O=[N+]([O-])c1ccc(C=NC2CCCCC2)cc1`, the TGI in [1], in assay [2], in [3], in assay [4], in assay [5] and in [6] was over 100 µM in each case. Further, the TGI in [7], in assay [8] and in [9] was over 100 µM in each case.

Take `COc1ccc(NC(=O)CC(=O)N/N=C/c2ccc(N(CCC#N)S(C)(=O)=O)cc2)cc1`: the TGI in [1], in assay [2], in [3], in [4], in assay [5] and in assay [6] was over 100 µM throughout. Also, the TGI in assay [7], in assay [8] and in assay [9] was over 100 µM each time.

`CC1(C)OC2=C(CC1Br)C(=O)C(=O)c1ccccc12` (stereo not given): the GI50 was 1.91 µM in assay [1]; 1.6 µM in assay [2]; 2.18 µM in assay [3]; 1.84 µM in [4]; 2.02 µM in [5]; 1.35 µM in [6]. The figures for the GI50 in assay [7], in [8] and in assay [9] were 1.75 µM, 3.56 µM and 1.66 µM, respectively. The TGI in assay [1] turned out to be 3.43 µM; in [2] it was 2.98 µM; in assay [3], 4.12 µM; in assay [4], 3.75 µM; in assay [5] it was 3.89 µM; in assay [6] it was 2.76 µM. Further, the TGI is 3.32 µM in assay [7], over 100 µM in assay [8] and 3.75 µM in assay [9].

On to `N#CC(C#N)=C1Nc2ccccc2S1`, for which the GI50 is 41 µM in assay [1]; 20.3 µM in [2]; 35.9 µM in assay [3]; 38.2 µM in [4]; 35.4 µM in [5]; 39.1 µM in assay [6]. Also, the GI50 is 27.8 µM in assay [7], 45.5 µM in [8] and 22.4 µM in assay [9]. In addition, the TGI in [1] was over 100 µM; in assay [2], 62.9 µM; in assay [3], over 100 µM; in assay [4], over 100 µM; in [5], over 100 µM; in assay [6], over 100 µM. In addition, the TGI in assay [7] is over 100 µM; in assay [8] it was over 100 µM; in [9] it was 45.9 µM.

For the molecule `Cc1cc(Cl)cc2c1NC(=O)C2(O)CC(=O)c1ccco1` (stereo not given), the TGI in assay [1], in assay [2], in assay [3], in assay [4], in assay [5] and in [6] was over 100 µM throughout. In addition, the results for the TGI in [7], in assay [8] and in assay [9] were over 100 µM, 57.3 µM and over 100 µM, respectively.

As for `O=C(CC1C(=O)NN(c2ccc(Br)cc2)C1=O)c1cc(O)ccc1O` (stereo not given), the GI50 in assay [1] is 22.4 µM; in assay [2], 7.41 µM; in assay [3], 40 µM; in [4], 13.6 µM; in assay [5], 18.4 µM; in assay [6] it was 41.2 µM. For the same molecule, the results for the GI50 in assay [7], in assay [8] and in assay [9] were 29 µM, over 50 µM and 19.8 µM, respectively. Further, the TGI in [1] was over 50 µM; in [2], 21.7 µM; in assay [3] it was over 50 µM; in assay [4], 40.3 µM; in [5] it was over 50 µM; in [6] it was over 50 µM. Further, the TGI in [7], in assay [8] and in assay [9] was over 50 µM each time.

Consider `NC1=NC(c2ccccc2)CC(c2cc(Cl)ccc2O)=N1` (stereo not given), for which the TGI came to 32.5 µM in [1]; 31.6 µM in [2]; 42.1 µM in assay [3]; 26.9 µM in [4]; 29.8 µM in [5]; 29.2 µM in [6]. The TGI in assay [7] came out at 30.8 µM; in [8], 51.8 µM; in assay [9], 29.4 µM.

Consider `COc1ccc(-c2onc(N)c2-c2cc(OC)c3c(c2)OCO3)cc1`, for which the GI50 in assay [1] was 7.24 µM; in assay [2], 2.08 µM; in assay [3] it was 8.44 µM; in assay [4] it was 4.26 µM; in [5], 4.22 µM; in assay [6] it was 10.5 µM. In addition, the GI50 was 8.58 µM in assay [7], 1.81 µM in assay [8] and 2.87 µM in assay [9]. For the same molecule, the TGI in assay [1] is over 100 µM; in assay [2], 7.08 µM; in [3], over 100 µM; in [4], over 100 µM; in assay [5], over 100 µM; in [6], over 100 µM. The TGI in assay [7] is over 100 µM; in assay [8], over 88.6 µM; in [9], over 100 µM.

Regarding `C/C(O)=C(\N=O)C(=O)Nc1ccc(Cl)cc1Cl`, the TGI in [1], in [2], in assay [3], in [4], in assay [5] and in assay [6] was over 100 µM in each case. In addition, the TGI in assay [7], in [8] and in [9] was over 100 µM throughout.
